# Source: patent US11925607B2, “Ketamine composition for use in a method of treatment of depression by pulmonary administration” (Celon Pharma S.A., priority 2018, dated 2024)
# Assays:
# [1] = cited from earlier work
# [2] = tested on: patients with treatment-resistant depression; details: cited from earlier work
# [3] = nebulized esketamine hydrochloride saline solution; cited from earlier work
# [4] = cited from earlier work; remark: listed apart in the source
# [5] = Pharmacokinetics of inhaled esketamine dry powder in healthy volunteers, clinical study; type: in vivo, human; details: pulmonary administration, overall conclusion
# Procedure: Esketamine hydrochloride dry powder formulation of Example 2 was administered to healthy volunteers pulmonary, i.e. directly to the lungs using dry powder inhaler (DPI) (by self-administration), under supervision of medical personnel.
# One puff of dry powder formulation contained 4.6 mg of esketamine hydrochloride, corresponding to 4 mg of esketamine free base and excipients 18.22 mg of lactose monohydrate and 0.18 mg of magnesium stearate.
# A single dose was an inhalation events consisting of 1 to 6 puffs, i.e. 4 to 24 mg of esketamine free base nominal dose.
# In part A of the study, designed as a one-centre single ascending dose, the medicine was delivered in a single dose once in one day (up to 6 consecutive puffs) to 18 healthy volunteer subjects. Subjects were divided into 6 cohorts, cohorts receiving 1, 2, 3, 4, 5 or 6 puffs in a single dose (inhalation event), respectively. Collection of blood samples for determination of esketamine and esnorketamine metabolite concentration and calculation of pharmacokinetic parameters was performed for 24 hours following the start of the test in the administration day. The aim of the study was to determine the amount of puffs in an inhalation event needed to obtain plasma concentration similar to that sufficient to achieve antidepressant effect as for 0.20 mg/kg 40 minutes intravenous infusion. […]
# [6] = 0.20 mg/kg 40 minutes intravenous infusion, predicted from literature data; cited from earlier work
# healthy volunteers = test: Adverse effects monitoring in clinical study, assessed by a psychiatrist; type: in vivo, human; details: pulmonary administration
# Procedure: Both in Part A and Part B of the study the adverse effects were monitored and assessed by a psychiatrist. The summary of the adverse effects is presented in FIG. 10 (Part A) and FIG. 11 (Part B). […] Psychomimetic effects were transient, lasting up to 30 minutes following administration. […] In Part C of the study adverse effects were monitored and assessed by a psychiatrist after each sequence of administration, i.e. on Day 1, Day 4, Day 8 and Day 11. The summary of adverse effects for Part C is presented on FIGS. 12A to 12D for Day 1, Day 4, Day 8 and Day 11, respectively. […] Psychomimetic effects were transient, lasting up to 30 minutes following administration.
# NMDA receptor = details: cited from earlier work
# [7] = after intravenous infusion of racemic ketamine
# [8] = after oral administration of ketamine
smiles,measurement,setting,value
CNC1(c2ccccc2Cl)CCCCC1=O (racemic) [ketamine],half-period of concentration fall,[1]; after intravenous infusion 0.5 mg/kg for 40 minutes,below 2 hours
same,systemic concentration of parent drug,"[1]; intravenous infusion 0.5 mg/kg for 40 minutes, maintained about 40 minutes",about 200 ng/ml
same,fraction of patients with treatment-resistant depression responsive,"[2]; human, in vivo",about ⅔
same,inhaled bioavailability,[3],reduced
same,bioavailability,[4]; orally administered,16-20%
CN[C@]1(c2ccccc2Cl)CCCCC1=O [esketamine],antidepressant effect,"[2]; TRD patients, 40-minute i.v. infusion of 0.20 mg/kg or 0.40 mg/kg (Singh et al.)",rapid onset of robust antidepressant effects
same,Plasma concentration profile,[5],"quite smooth, consistent with a target profile"
same,concentration at 40 min of infusion,[6],60 to 100 ng/mL
same,safety of plasma concentration profile,healthy volunteers,safe for chronic administration
NC1(c2ccccc2Cl)CCCCC1=O (centres unmarked) [norketamine],maximum concentration as % of ketamine concentration,[1]; [7],10-20%
same,percentage of AUC norketamine to ketamine,[1]; [7],20-40%
same,activity on NMDA receptor relative to ketamine,NMDA receptor,many times less active than ketamine
same,AUC as % of ketamine,[4]; [8],exceeding 1000%
same,level as % of ketamine level,[4]; [8],500-1000%
